Like-named read-outs stand apart in the source and are kept apart here.
Assays:
PC-3 cells = experiment: Cell growth after single 24 H pre-treatment (Alamar blue); format: cell-based, Human; conditions: 0.5 μM for 24 H, washed, Alamar blue up to 144 H; FIG. 1
Excerpt: The necessity of a continuous presence of PCNA-I1 for cell growth was also investigated.

[1] = tested on: PC-3 prostate cancer cells; experiment: Growth inhibition by MTT staining, PC-3; format: cell-based, Human
Method: (§1) Growth inhibitory effects of PCNA-I1 and PCNA-I2 were assessed in human cancer cell lines, mouse cancer cell lines, immortalized mouse cell lines, and human primary cell lines. Specifically, growth inhibitory effects of PCNA-I1 and PCNA-I2 were assessed using MTT staining in the following cells lines: 1) human cancer cell lines including LNCaP (androgen receptor […]), 22Rv1, DU-145, LAPC-4, and PC-3 (androgen receptor […]) prostate cancer cells; MCF-7 and T47D breast cancer cells; A375 and MDA-MB435 melanoma cells; 2) mouse cancer cell lines including TRAMP-C2RE3 prostate cancer cells, B16 and K1735 melanoma cells, UV2237 fibrosarcoma cells, and CT-26 colon cancer cells; 3) immortalized mouse lung cell lines and mouse endothelial cell lines; and 4) primary human cell lines including umbilical endothelial cells (HUVEC, PromoCell, Heidelberg, Germany), primary bone marrow mesenchymal stem cells (HuMSC, PromoCell), primary human mammary epithelial cells (HuBrEC, Lonza, Walkersville, Md.), primary human prostate epithelial cells (HuPrEC, Lonza), and primary mouse spleen lymphocytes (isolated in this laboratory), and primary mouse bone marrow stromal cells (isolated in this laboratory). PCNA-I1 and PCNA-I2 were either provided by the University of Cincinnati Drug Discovery Center (UC-DDC, Cincinnati, Ohio) or were purchased from Chembridge Co (San Diego, Calif.), ChemDiv (San Diego, Calif.), and/or Sigma-Aldrich (St Louis, Mo.).
Growth inhibitory effects of the compounds were assessed by MTT staining as described previously by Dong et al. in In Vitro Model for Intrinsic Drug Resistance: Effects of Protein Kinase C Activators on the Chemosensitivity of Cultured Human Colon Cancer Cells; Mol. Pharmacol. 1991; 39: 563-9. Briefly, cells were cultured and treated in their respective media. Cells were plated into 96-well plates at 1000 to 5000 cells/well. After an overnight incubation, the cells were treated for four days with various concentrations (up to 10 μM) of PCNA-I1 or PCNA-I2. The live cells were stained with MTT and cells in exponential growth phase were harvested by a one to three minute treatment with a 0.25% trypsin-0.02% EDTA solution. Flasks were tapped to detach the cells, RPMI 1640-10% FBS was added, and the cell suspensions were gently agitated to produce single-cell suspensions. The cell suspensions were washed and resuspended in medium with supplements specified for different cells. Only suspensions of single cells with a viability exceeding 95% (ascertained by trypan blue exclusion) were used.
IC50 values were derived from growth inhibition curves. Data for tumor cells are a mean of five to seven experiments. Data for primary cells are a mean of three experiments. […] Inhibition of cell growth was calculated using the formula: growth inhibition (%)=(1−A570 of treated/A570 of control)×100. IC50 (the concentration that inhibited cell growth by 50%) values were also determined. For evaluation of lymphocyte growth in suspension, an Alamar blue assay was performed, wherein freshly prepared mouse spleen lymphocytes were stimulated for 72 H with 2 ug/mL concanavalin A (Sigma Chemicals, St. Louis, […].). During the last 24 H, 20 μl/well of Alamar blue (Invitrogen, Carlsbad, Calif.) was added. The fluorescence intensity was measured at 530/580 (excitation/emission) in the FLUOstar Omega microplate reader (BMG LABTECH, Cary, N.C.).
Growth inhibitory effects of PCNA-I3, PCNA-I4, PCNA-I6, PCNA-I7, PCNA-I8, PCNA-I9 and PCNA-I10 were assessed in human prostate cancer cell lines. Specifically, growth inhibitory effects of PCNA-I3, PCNA-I4, PCNA-I6, PCNA-I7, PCNA-I8, PCNA-I9 and PCNA-I10 were assessed using MTT staining in LNCaP and PC-3 cells. […]

K1735 melanoma cells = experiment: Growth inhibition by MTT staining, K1735; format: cell-based; conditions: 96 h, Mouse, treated four days
Method: as §1, with “PCNA-I1 and PCNA-I2 were either provided by the University of Cincinnati Drug Discovery Center (UC-DDC, Cincinnati, Ohio) or were purchased from Chembridge Co (San Diego, Calif.), ChemDiv (San Diego, Calif.), and/or Sigma-Aldrich (St Louis, Mo.).” left out
IC50 values were derived from growth inhibition curves. […] Inhibition of cell growth was calculated using the formula: growth inhibition (%)=(1−A570 of treated/A570 of control)×100. […]

`Cc1ccsc1C(=O)N/N=C/c1ccc2ccccc2c1O` [PCNA-I1] was tested, and the “Duration of growth inhibition after single one-day pre-treatment” value (PC-3 cells) was “sufficient to inhibit cell growth for up to seven days”, the IC50 ([1]; 96 h, Table II, Human tumor cells, MTT, treated four days, mean of five to seven experiments, read-out: IC50 Values, PC-3) was 0.24 µM and the IC50 ([1]; Homo sapiens, FIG. 2(C), read-out: IC50, PC-3) was 0.25 µM. For the same compound, the IC50 (K1735 melanoma cells) was 0.05 µM.
